Several values for one entry are separate records, joined by “and”; a condition that tells them apart may be missing. Equal values may be shown once.
Key:
[1] = cynomolgus monkey, in vivo
Excerpt: Animals. […] Solvent was used as vehicle for the control group.
The animals used in this analysis were cynomolgus monkeys (Macaca fascicularis), supplied by Centre de Recherches Primatologiques, Port Louis, Mauritius. Two animals were used per group and sex. At the beginning of the treatment period, the animals were at least 24 months old, with a body weight of approximately 3 kg. Animals were kept under standard conditions for animal welfare. Animals were examined daily for mortality, food consumption and clinical observations. Body weight was recorded once per week.

Blood pressure = format: in vivo, cynomolgus monkeys (Macaca fascicularis); conditions: for Blood Pressure Difference: Week 2 vs Week-1; for Blood Pressure Week-1: before dosing
Haematology = format: in vivo, cynomolgus monkeys (Macaca fascicularis)
Excerpt: (§1) Blood sampling. […] Blood samples were taken from a peripheral vein.

[2] = Hormone determinations in serum; format: in vivo, cynomolgus monkeys (Macaca fascicularis); conditions: males
Excerpt: as §1

[3] = test system: liver, kidney, pituitary, muscle, bone, duodenum, spleen and trachea; parameters: species or system cynomolgus monkeys (Macaca fascicularis); conditions: cynomolgus monkey, in vivo
Procedure: Tissue sampling. Animals were killed by deep anaesthesia induced by intravenous injection of Pentothal®, followed by exsanguinations. All relevant tissues were sampled for histopathology and gene expression profiling. The following tissue samples were processed for analysis: liver, kidney, pituitary, muscle, bone, duodenum, spleen and trachea. Samples for histopathology were fixed in phosphate-buffered 10% formalin. Bone demineralization was performed with 10% formic acid. Tissue samples were embedded in Paraplast® and sectioned at 4 microns, for staining with haematoxylin and eosin. Samples for gene expression profiling were quickly frozen in liquid nitrogen immediately after excision, stored on dry ice and subsequently in a deep-freezer at approximately −80° C. until further use. All selected tissues for gene expression profiling were examined histopathologically.

[4] = urine, females, day −8 (pre-dose)

Food Consumption Avg., Both animals [1]: 72.9
L (Haematology; females, d 7): 4.61 G/L and 6.21 G/L
MCH (Haematology; females, d 7): 18.6 pg and 19.4 pg
MCV (Haematology; females, d 7): 64 fL and 68 fL
PCV (Haematology; females, d 7): 0.4 l/l and 0.44 l/l
PLAT (Haematology; females, d 7): 594 G/L and 356 G/L
RBC (Haematology; females, d 7): 6.2 T/l and 6.6 T/l
WBC (Haematology; females, d 7): 9.5 G/l and 17 G/l
monocyte count (Haematology; females, d 7): 0.63 G/l and 0.82 G/l
B (Haematology; females, d 13): 0.03 G/L and 0.05 G/L
L (Haematology; females, d 13): 5.18 G/L and 6.58 G/L
MCH (Haematology; females, d 13): 19.5 pg
MCV (Haematology; females, d 13): 64 fL and 65 fL
PCV (Haematology; females, d 13): 0.33 l/l and 0.37 l/l
PLAT (Haematology; females, d 13): 451 G/L and 229 G/L
RBC (Haematology; females, d 13): 5.2 T/l and 5.7 T/l
WBC (Haematology; females, d 13): 12 G/l and 13.3 G/l
monocyte count (Haematology; females, d 13): 0.69 G/l and 0.39 G/l
B (Haematology; females, d −8 (before dosing)): 0.02 G/L and 0.01 G/L
E (Haematology; females, d −8 (before dosing)): 0.03 G/L
L (Haematology; females, d −8 (before dosing)): 3.26 G/L and 4.79 G/L
MCH (Haematology; females, d −8 (before dosing)): 19.1 pg and 19.8 pg
MCV (Haematology; females, d −8 (before dosing)): 61 fL and 65 fL
PCV (Haematology; females, d −8 (before dosing)): 0.4 l/l and 0.45 l/l
PLAT (Haematology; females, d −8 (before dosing)): 549 G/L and 304 G/L
RBC (Haematology; females, d −8 (before dosing)): 6.5 T/l and 7 T/l
WBC (Haematology; females, d −8 (before dosing)): 7 G/l and 8.3 G/l
monocyte count (Haematology; females, d −8 (before dosing)): 0.25 G/l and 0.3 G/l
B (Haematology; males, d 7): 0.04 G/l
E (Haematology; males, d 7): 0.10 G/l and 0.09 G/l
HB (Haematology; males, d 7): 11.7 g/dL and 11.5 g/dL
L (Haematology; males, d 7): 6.79 G/l and 5.57 G/l
M (Haematology; males, d 7): 0.73 G/l and 0.45 G/l
MCH (Haematology; males, d 7): 19.9 pg and 19.2 pg
MCHC (Haematology; males, d 7): 30.3 g/dL and 31.3 g/dL
MCV (Haematology; males, d 7): 66 fL and 62 fL
PCV (Haematology; males, d 7): 0.39 l/l and 0.37 l/l
PLAT (Haematology; males, d 7): 396 G/l and 330 G/l
RBC (Haematology; males, d 7): 5.9 T/l and 6.0 T/l
WBC (Haematology; males, d 7): 11.8 G/l and 9.5 G/l
B (Haematology; males, d 13): 0.03 G/l
HB (Haematology; males, d 13): 11.2 g/dL and 10.3 g/dL
L (Haematology; males, d 13): 5.38 G/l and 4.92 G/l
M (Haematology; males, d 13): 0.57 G/l and 0.76 G/l
MCH (Haematology; males, d 13): 20.2 pg and 19.2 pg
MCHC (Haematology; males, d 13): 29.0 g/dL and 28.7 g/dL
MCV (Haematology; males, d 13): 70 fL and 67 fL
PCV (Haematology; males, d 13): 0.39 l/l and 0.36 l/l
PLAT (Haematology; males, d 13): 302 G/l and 389 G/l
RBC (Haematology; males, d 13): 5.6 T/l and 5.4 T/l
WBC (Haematology; males, d 13): 8.0 G/l and 8.8 G/l
HB (Haematology; males, d −6 (before dosing)): 12.6 g/dL and 13.6 g/dL
L (Haematology; males, d −6 (before dosing)): 4.00 G/l and 6.55 G/l
MCH (Haematology; males, d −6 (before dosing)): 20.2 pg and 19.7 pg
MCHC (Haematology; males, d −6 (before dosing)): 31.4 g/dL and 32.0 g/dL
MCV (Haematology; males, d −6 (before dosing)): 64 fL and 62 fL
PCV (Haematology; males, d −6 (before dosing)): 0.40 l/l and 0.43 l/l
PLAT (Haematology; males, d −6 (before dosing)): 351 G/l and 247 G/l
RBC (Haematology; males, d −6 (before dosing)): 6.3 T/l and 6.9 T/l
WBC (Haematology; males, d −6 (before dosing)): 7.7 G/l and 11.5 G/l
ACTH ([2]; day 7): 87 pg/mL and 78 pg/mL
ALDOST ([2]; day 7): 1058 pg/mL and 987 pg/mL
C-PEPTI ([2]; day 7): 1.70 ng/mL and 1.20 ng/mL
CORTISOL ([2]; day 7): 979 nmol/L and 1523 nmol/L
CT ([2]; day 7): 4.0 pg/mL and 2.5 pg/mL
GASTRIN ([2]; day 7): 83 pg/mL and 128 pg/mL
GLUCAG ([2]; day 7): 247 pg/mL and 218 pg/mL
INSULIN ([2]; day 7): 14.0 mU/l and 10.0 mU/l
IPH ([2]; day 7): 75 pg/mL and 62 pg/mL
S.MED ([2]; day 7): 268 ng/mL and 307 ng/mL
T3 ([2]; day 7): 2.35 nmol/L and 1.65 nmol/L
T4 ([2]; day 7): 64 nmol/L and 79 nmol/L
VD25-H ([2]; day 7): 50 nmol/L and 44 nmol/L
ACTH ([2]; day 13): 87 pg/mL and 73 pg/mL
ALDOST ([2]; day 13): 819 pg/mL and 977 pg/mL
C-PEPTI ([2]; day 13): 1.80 ng/mL and 2.30 ng/mL
CORTISOL ([2]; day 13): 1611 nmol/L and 1709 nmol/L
G.H. ([2]; day 13): 16.2 ng/mL and 15.7 ng/mL
GASTRIN ([2]; day 13): 88 pg/mL and 136 pg/mL
GLUCAG ([2]; day 13): 428 pg/mL and 503 pg/mL
INSULIN ([2]; day 13): 17.0 mU/l and 22.0 mU/l
IPH ([2]; day 13): 78 pg/mL and 71 pg/mL
PROLACT ([2]; day 13): 4.6 ng/mL and 6.6 ng/mL
S.MED ([2]; day 13): 332 ng/mL and 384 ng/mL
T3 ([2]; day 13): 2.51 nmol/L and 1.90 nmol/L
T4 ([2]; day 13): 47 nmol/L and 65 nmol/L
VD25-H ([2]; day 13): 49 nmol/L and 45 nmol/L
CORTISOL ([2]; day −6 (pre-dose)): 2316 nmol/L and 1578 nmol/L
CT ([2]; day −6 (pre-dose)): 6.7 pg/mL and 5.1 pg/mL
G.H. ([2]; day −6 (pre-dose)): 11.5 ng/mL and 14.6 ng/mL
GLUCAG ([2]; day −6 (pre-dose)): 905 pg/mL and 869 pg/mL
T3 ([2]; day −6 (pre-dose)): 1.06 nmol/L and 1.48 nmol/L
T4 ([2]; day −6 (pre-dose)): 53 nmol/L and 62 nmol/L
TESTO ([2]; day −6 (pre-dose)): 8.5 nmol/L and 9.5 nmol/L
VD25-H ([2]; day −6 (pre-dose)): 63 nmol/L and 62 nmol/L
ACTH ([2]; day −6 relative to start of dosing (pre-dose)): 98 pg/mL and 115 pg/mL
CREAT (urine) (Urinary analysis; males, day 13): 4620 µmol/L and 4400 µmol/L
Ca2+ (urine) (Urinary analysis; males, day 13): 18.25 mmol/L and 23.40 mmol/L
Cl− (urine) (Urinary analysis; males, day 13): 55 mmol/L and 68 mmol/L
I.PHOS (urine) (Urinary analysis; males, day 13): 2.50 mmol/L and 3.00 mmol/L
K+ (urine) (Urinary analysis; males, day 13): 78 mmol/L and 76 mmol/L
Mg2+ (urine) (Urinary analysis; males, day 13): 7.05 mmol/L and 9.80 mmol/L
Na+ (urine) (Urinary analysis; males, day 13): 14 mmol/L and 15 mmol/L
VOLUME (urine) (Urinary analysis; males, day 13): 68 mL and 54 mL
I.PHOS (urine) (Urinary analysis; males, day −6 (before dosing)): 4.35 mmol/L and 5.33 mmol/L
LDH (urine) (Urinary analysis; males, day −6 (before dosing)): 9.0 IU/L and 13.0 IU/L
NAG (urine) (Urinary analysis; males, day −6 (before dosing)): 2.7 IU/l and 4.2 IU/l
VOLUME (urine) (Urinary analysis; males, day −6 (before dosing)): 62 mL and 37 mL
CREAT (Urinary analysis; urine, females, day 13): 4800 µmol/L and 4200 µmol/L
Ca2+ (Urinary analysis; urine, females, day 13): 17.55 mmol/L and 12.70 mmol/L
Cl− (Urinary analysis; urine, females, day 13): 63 mmol/L and 65 mmol/L
I.PHOS (Urinary analysis; urine, females, day 13): 5.1 mmol/L and 5.8 mmol/L
K+ (Urinary analysis; urine, females, day 13): 53 mmol/L and 57 mmol/L
Mg2+ (Urinary analysis; urine, females, day 13): 5.40 mmol/L and 4.85 mmol/L
NAG (Urinary analysis; urine, females, day 13): 2.8 IU/l and 2.7 IU/l
Na+ (Urinary analysis; urine, females, day 13): 40 mmol/L and 32 mmol/L
VOLUME (Urinary analysis; urine, females, day 13 of dosing): 67 mL and 49 mL
CREAT (Urinary analysis; urine, females, day −7 (pre-dose)): 6920 µmol/L and 13380 µmol/L
CREAT (Urinary analysis; [4]): 10780 µmol/L and 11260 µmol/L
Ca2+ (Urinary analysis; [4]): 3.00 mmol/L and 3.50 mmol/L
K+ (Urinary analysis; [4]): 104 mmol/L and 172 mmol/L
Mg2+ (Urinary analysis; [4]): 3.35 mmol/L and 3.80 mmol/L
Na+ (Urinary analysis; [4]): 98 mmol/L and 156 mmol/L
Structure (SMILES): CC(C)C[C@H](NC(=O)[C@H](CCCCN)NC(=O)CNC(=O)[C@H](CC(C)C)NC(=O)[C@@H](NC(=O)[C@@H]1CSSC[C@H](N)C(=O)N[C@@H](CO)C(=O)N[C@@H](CC(N)=O)C(=O)N[C@@H](CC(C)C)C(=O)N[C@@H](CO)C(=O)N[C@@H]([C@@H](C)O)C(=O)N1)C(C)C)C(=O)N[C@@H](CO)C(=O)N[C@@H](CCC(N)=O)C(=O)N[C@@H](CCC(=O)O)C(=O)N[C@@H](CC(C)C)C(=O)N[C@@H](Cc1c[nH]cn1)C(=O)N[C@@H](CCCCN)C(=O)N[C@@H](CC(C)C)C(=O)N[C@@H](CCC(N)=O)C(=O)N[C@H](C(=O)N[C@@H](Cc1ccc(O)cc1)C(=O)N1CCC[C@H]1C(=O)N[C@@H](CCCNC(=N)N)C(=O)N[C@H](C(=O)N[C@@H](CC(N)=O)C(=O)N[C@H](C(=O)NCC(=O)N[C@@H](CO)C(=O)NCC(=O)N[C@H](C(=O)N1CCC[C@H]1C(N)=O)[C@@H](C)O)[C@@H](C)O)[C@@H](C)O)[C@@H](C)O [Salmon Calcitonin]
Blood Pressure Week 2 (Blood pressure; Female, first line per animal): 82 mmHg and 44 mmHg
Blood Pressure Difference (Blood pressure; Female, first line per animal): −16 mmHg and −48 mmHg
Blood Pressure Week-1 (Blood pressure; Female, first line per animal): 98 mmHg and 92 mmHg
Blood Pressure Week 2 (Blood pressure; Female, second line per animal): 25 mmHg and 30 mmHg
Blood Pressure Difference (Blood pressure; Female, second line per animal): −25 mmHg and 4 mmHg
Blood Pressure Week-1 (Blood pressure; Female, second line per animal): 50 mmHg and 26 mmHg
Blood Pressure Week 2 (Blood pressure; Male, first line per animal): 99 mmHg and 79 mmHg
Blood Pressure Difference (Blood pressure; Male, first line per animal): −36 mmHg and −23 mmHg
Blood Pressure Week-1 (Blood pressure; Male, first line per animal): 135 mmHg and 102 mmHg
Blood Pressure Week 2 (Blood pressure; Male, second line per animal): 40 mmHg and 35 mmHg
Blood Pressure Difference (Blood pressure; Male, second line per animal): −21 mmHg
Blood Pressure Week-1 (Blood pressure; Male, second line per animal): 61 mmHg and 56 mmHg
inflammatory and regenerative changes in the kidneys [3]: slightly higher incidence

Source: US20070099828A1, “BIOMARKERS FOR THE EFFICACY OF CALCITONIN AND PARATHYROID HORMONE TREATMENT” (priority 2003, published 2007)
